# From patent US10576049B1, “Composition for improving function of aortic endothelial cell and use thereof” (XI'AN JIAOTONG UNIVERSITY, priority 2018, dated 2020)
# Key:
# Type in all cases: cell-based
# [1] = test system: interleukin-6 (IL-6) mRNA in human aortic endothelial cells (HAEC); test: IL-6 mRNA level detection (RT-PCR) in palmitic acid-induced inflammation of human aortic endothelial cells; details: 500 μM palmitic acid 24 h, versus control group, HAEC (FIG. 1)
# Method: (§2) In each of the three experiment groups, the cells were respectively cultured at an atmosphere of 95% air and 5% CO2 at 37° C. in wells of a 12-well cell culture plate for the following mRNA level detection, and in wells of a 6-well cell culture plate for the following protein detection. After the cell density of the three experiment groups were all cultured to 40% to 50%, the composition was added to the cells of group III. The composition was comprised of the acetic acid, lactic acid, polyoxyethylene castor oil (EL-12), and disodium alkyl polyoxyethylene sulfosuccinate (A-102) in the mass ratio of 1:2.2:1.8:1.5. Different concentrations of the composition were obtained by diluting the composition by adding a solvent having a volume of 20, 100, or 1000 times of the composition. […]
# (§3) The detecting of mRNA levels corresponding to interleukin-6 and matrix metalloproteinase-1 was carried out by using reverse transcription RNA and real-time quantitative polymerase chain reaction (PCR), and the specific method is as follows:
# (§4) The medium for cell culture in the wells was removed. […] The concentration of the solution was measured by an ultraviolet spectrophotometer. […]
# [2] = test system: matrix metalloproteinase-1 (MMP-1) mRNA in human aortic endothelial cells (HAEC); test: MMP-1 mRNA level detection (RT-PCR) in palmitic acid-induced inflammation of human aortic endothelial cells; details: 500 μM palmitic acid 24 h, versus control group, HAEC (FIG. 1)
# Method: as §2, §3, §4
# [3] = test system: mitochondrial complex I in human aortic endothelial cells; test: Western blot of mitochondrial complex I expression in palmitic acid-treated human aortic endothelial cells; details: 500 μM palmitic acid 24 h alone, versus control, HAEC, Western blot (FIG. 2A, 2B)
# Method: (§1) Human aortic endothelial cells (HAEC) were purchased from Shanghai Baili Biotechnology Co., Ltd. Palmitic acid was purchased from SIGMA Company. The cells were cultured in a constant-temperature, humidified, sterile incubator. The experiments were performed in three experiment groups: I. control; II. 500 μM palmitic acid treatment; and III. composition protecting. In each of the three experiment groups, the cells were respectively cultured at an atmosphere of 95% air and 5% CO2 at 37° C. in wells of a 12-well cell culture plate for the following mRNA level detection, and in wells of a 6-well cell culture plate for the following protein detection. After the cell density of the three experiment groups were all cultured to 40% to 50%, the composition was added to the cells of group III. […] The supernatants were collected, and the proteins therein were quantified by bicinchoninic acid (BCA) assay, and normalized. […] Target proteins were detected by chemiluminescence. Referring to FIG. 1 to FIG. 3, the data obtained in the above-described experiments, for the amount of the mRNA and the proteins, were expressed in the diagrams in form of mean±SEM (SEM is standard error of mean), and the data were analyzed by using One-way ANOVA analysis method with statistical significance p values of * meaning p<0.05, ** meaning p<0.01, *** meaning p<0.001. […]
# [4] = test system: mitochondrial complex III in human aortic endothelial cells; test: Western blot of mitochondrial complex III expression in palmitic acid-treated human aortic endothelial cells; details: 500 μM palmitic acid 24 h alone, versus control, HAEC, Western blot (FIG. 2A, 2B)
# Method: as §1
# [5] = test system: FoxO1 protein in human aortic endothelial cells; test: Western blot of FoxO1 protein expression in palmitic acid-treated human aortic endothelial cells; details: 500 μM palmitic acid 24 h alone, versus control, HAEC
# Method: as §1
smiles,measurement,setting,value
CCCCCCCCCCCCCCCC(=O)O [palmitic acid],increase of mRNA level corresponding to IL-6,[1],about 12 times
same,increase of mRNA level corresponding to MMP-1,[2],about 5 times
same,expression of mitochondrial complex I,[3],reducing
same,expression of mitochondrial complex III,[4],reducing
same,expression of FoxO1,[5],reducing
